Reference: patent US12398154B2, “Azaquinazoline pan-KRas inhibitors” (Mirati Therapeutics, Inc., priority 2020, dated 2025)

How the values were obtained:
KRas G12R = KRas G12R (Homo sapiens, UniProt P01116, G12R); experiment: biochemical;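 note: TR-FRET displacement assay of compound binding to KRas, read after one hour at room temperature, potency from a four-parameter fit of percent-of-control values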
Experimental: (§1) The ability of a compound to bind to KRas was measured using a TR-FRET displacement assay. […] After a 60-minute incubation at room temperature, the reaction was measured using a BMG LABTECH CLARIO star Plus via TR-FRET. […] The POC values were fit to a 4-parameter IC50 equation and the IC50 value reported.

KRas G12C = KRas G12C (Homo sapiens, UniProt P01116, G12C); experiment: biochemical;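 note: binding to KRas assessed by TR-FRET displacement after one hour incubation at room temperature, potency fitted from percent-of-control values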
KRas G12C, sequence (P01116 1-169 isoform P01116-2 G12C): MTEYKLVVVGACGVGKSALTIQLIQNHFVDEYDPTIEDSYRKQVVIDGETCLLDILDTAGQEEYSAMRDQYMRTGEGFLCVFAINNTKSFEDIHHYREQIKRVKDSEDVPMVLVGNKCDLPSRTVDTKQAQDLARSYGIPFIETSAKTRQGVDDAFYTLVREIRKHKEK
Experimental: as §1

KRas WT = KRas WT (Homo sapiens, UniProt P01116); experiment: biochemical;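 note: binding to KRas read as TR-FRET displacement after a one-hour room-temperature incubation, IC50 derived from percent-of-control values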
KRas WT, sequence (P01116 1-169 isoform P01116-2): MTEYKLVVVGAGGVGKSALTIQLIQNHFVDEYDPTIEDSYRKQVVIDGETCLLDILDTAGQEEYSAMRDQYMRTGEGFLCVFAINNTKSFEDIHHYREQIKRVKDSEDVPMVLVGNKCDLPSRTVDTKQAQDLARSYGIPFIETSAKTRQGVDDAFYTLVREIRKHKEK
Experimental: as §1

KRas G12A = KRas G12A (Homo sapiens, UniProt P01116, G12A); experiment: biochemical;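 note: binding to KRas measured by TR-FRET displacement after one hour at room temperature, IC50 from a four-parameter fit of percent-of-control values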
KRas G12A, sequence (P01116 1-169 isoform P01116-2 G12A): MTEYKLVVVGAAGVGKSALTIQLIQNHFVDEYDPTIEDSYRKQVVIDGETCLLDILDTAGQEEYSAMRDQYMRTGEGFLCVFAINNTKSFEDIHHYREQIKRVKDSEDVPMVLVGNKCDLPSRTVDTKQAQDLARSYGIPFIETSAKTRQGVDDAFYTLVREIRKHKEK
Experimental: as §1

KRas G12V = KRas G12V (Homo sapiens, UniProt P01116, G12V); experiment: biochemical;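 note: KRas binding measured by TR-FRET displacement at room temperature, IC50 fitted from percent of control values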
KRas G12V, sequence (P01116 1-169 isoform P01116-2 G12V): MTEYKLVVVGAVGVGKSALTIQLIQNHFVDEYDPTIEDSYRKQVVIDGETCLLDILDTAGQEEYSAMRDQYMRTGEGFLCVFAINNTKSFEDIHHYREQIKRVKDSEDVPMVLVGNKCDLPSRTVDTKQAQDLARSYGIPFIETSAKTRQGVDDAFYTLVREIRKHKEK
Experimental: as §1

KRas G13D = target: T1, KRas G13D (Homo sapiens, UniProt P01116, G13D); experiment: KRas binding assay (TR-FRET displacement);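 note: One-hour room temperature incubation before TR-FRET reading, IC50 from a four-parameter curve fit to percent-of-control data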
T1 construct: Biotinylated KRas (corresponding to amino acids 1-169, produced at Accelegan Inc.); biotin (biotinylated); purchased Accelegan Inc
T1 sequence (P01116 1-169 isoform P01116-2 G13D): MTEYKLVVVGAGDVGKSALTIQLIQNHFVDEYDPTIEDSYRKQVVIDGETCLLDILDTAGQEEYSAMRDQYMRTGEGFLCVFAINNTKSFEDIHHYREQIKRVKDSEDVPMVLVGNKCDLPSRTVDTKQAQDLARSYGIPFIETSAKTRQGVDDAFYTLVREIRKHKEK
Experimental: as §1

KRas G12D = KRas G12D (Homo sapiens, UniProt P01116, G12D); experiment: biochemical;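 note: TR-FRET displacement binding assay on KRas, read after a one-hour incubation at room temperature, IC50 fitted from percent-of-control values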
KRas G12D, sequence (P01116 1-169 isoform P01116-2 G12D): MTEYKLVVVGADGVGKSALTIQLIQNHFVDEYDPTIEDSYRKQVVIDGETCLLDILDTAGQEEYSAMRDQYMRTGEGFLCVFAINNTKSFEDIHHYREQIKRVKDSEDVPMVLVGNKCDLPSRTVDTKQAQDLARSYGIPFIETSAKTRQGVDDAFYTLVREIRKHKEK
Experimental: as §1

KRas G12S = KRas G12S (Homo sapiens, UniProt P01116, G12S); experiment: biochemical;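 note: TR-FRET displacement binding to KRas, read after one hour incubation at room temperature, IC50 from four-parameter fit of percent of control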
KRas G12S, sequence (P01116 1-169 isoform P01116-2 G12S): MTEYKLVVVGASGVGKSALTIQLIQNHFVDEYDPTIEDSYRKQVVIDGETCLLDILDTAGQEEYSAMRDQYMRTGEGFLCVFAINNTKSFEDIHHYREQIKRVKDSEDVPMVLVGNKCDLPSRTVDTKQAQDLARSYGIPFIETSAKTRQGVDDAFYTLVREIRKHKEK
Experimental: as §1

KRas Q61H = target: T2, KRas Q61H (Homo sapiens, UniProt P01116, Q61H); experiment: KRas binding assay (TR-FRET displacement);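 note: TR-FRET signal read after one hour at room temperature, IC50 derived by four-parameter fitting of percent-of-control values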
T2 construct: Biotinylated KRas (corresponding to amino acids 1-169, produced at Accelegan Inc.); biotin (biotinylated); purchased Accelegan Inc
T2 sequence (P01116 1-169 isoform P01116-2 Q61H): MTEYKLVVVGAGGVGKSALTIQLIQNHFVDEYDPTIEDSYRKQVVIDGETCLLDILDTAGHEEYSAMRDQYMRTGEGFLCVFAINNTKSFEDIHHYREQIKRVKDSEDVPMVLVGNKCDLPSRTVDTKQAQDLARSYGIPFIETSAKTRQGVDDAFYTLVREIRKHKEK
Experimental: as §1

KRas G12R, sequence (P01116 1-169 isoform P01116-2 G12R): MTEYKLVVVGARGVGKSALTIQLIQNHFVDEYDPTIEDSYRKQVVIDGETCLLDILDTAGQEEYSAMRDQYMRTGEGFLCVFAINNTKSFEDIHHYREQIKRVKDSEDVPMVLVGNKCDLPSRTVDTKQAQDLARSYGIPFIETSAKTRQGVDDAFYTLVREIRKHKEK

| SMILES | IC50 (KRas G12R) [µM] | IC50 (KRas G12C) [µM] | IC50 (KRas WT) [µM] | IC50 (KRas G12A) [µM] | IC50 (KRas G12V) [µM] | IC50 (KRas G13D) [nM] | IC50 (KRas G12D) [µM] | IC50 (KRas G12S) [µM] | IC50 (KRas Q61H) [nM] |
| --- | --- | --- | --- | --- | --- | --- | --- | --- | --- |
| Cn1cc(CNc2nc(OCC34CCCN3CCC4)nc3c(F)c(-c4cccc5cccc(F)c45)ncc23)ccc1=O [Example 88, 5-(((8-fluoro-7-(8-fluoronaphthalen-1-yl)-2-((hexahydro-1H-pyrrolizin-7a-yl)methoxy)pyrido[4,3-d]pyrimidin-4-yl)amino)methyl)-methylpyridin-2 (1H)-one] | 4.37 | 2.51 | 7.17 | 1.82 | 2.18 | 9310 | 30.7 | 4.24 | 14700 |
| Fc1c(-c2cccc3cccc(F)c23)ncc2c(NCc3nnc4cccnn34)nc(OCC34CCCN3CCC4)nc12 [Example 122, N-([1,2,4]triazolo[4,3-b]pyridazin-3-ylmethyl)-8-fluoro-7-(8-fluoronaphthalen-1-yl)-2-((tetrahydro-1H-pyrrolizin-7a(5H)-yl)methoxy)pyrido[4,3-d]pyrimidin-4-amine] | 12.4 | 3.47 | 26 | 14.4 | 6.91 | 86400 | ≥ 100 | 21.7 | 88200 |
| Fc1c(-c2cccc3cccc(F)c23)ncc2c(OCCCc3cccnc3)nc(OCC34CCCN3CCC4)nc12 [Example 207, 8-fluoro-7-(8-fluoronaphthalen-1-yl)-4-(3-(pyridin-3-yl)propoxy)-2-((tetrahydro-1H-pyrrolizin-7a(5H)-yl)methoxy)pyrido[4,3-d]pyrimidine] | 13.1 | 11.8 | 26.7 | 18.1 | 6.17 | 30400 | 17.3 | 46.2 | 46400 |

Now those with a lower IC50 (KRas G12R), led by results:

| IC50 (KRas G12R) [µM] | IC50 (KRas G12C) [µM] | IC50 (KRas WT) [µM] | IC50 (KRas G12A) [µM] | IC50 (KRas G12V) [µM] | IC50 (KRas G13D) [nM] | IC50 (KRas G12D) [µM] | IC50 (KRas G12S) [µM] | IC50 (KRas Q61H) [nM] | SMILES |
| --- | --- | --- | --- | --- | --- | --- | --- | --- | --- |
| 3.99 | 6.84 | 3.58 | 3.93 | 3.41 | 3510 | 7.31 | 3.8 | 5310 | CS(=O)(=O)C1CCCCN(c2nc(OCC34CCCN3CCC4)nc3c(F)c(-c4cccc5cccc(F)c45)ncc23)C1 (stereo not drawn) [Example 250, 8-fluoro-7-(8-fluoronaphthalen-1-yl)-2-((hexahydro-1H-pyrrolizin-7a-yl)methoxy)-4-(3-(methylsulfonyl)azepan-1-yl)pyrido[4,3-d]pyrimidine] |
| 2.2 | 11.3 | 14.1 | 12.7 | 12.7 | 36600 | ≥ 100 | 17.9 | 31400 | O=C(O)[C@H]1C[C@H](Nc2nc(OCC34CCCN3CCC4)nc3c(F)c(-c4cccc5cccc(F)c45)ncc23)C1 [Example 91, trans-3-((8-fluoro-7-(8-fluoronaphthalen-1-yl)-2-((tetrahydro-1H-pyrrolizin-7a(5H)-yl)methoxy)pyrido[4,3-d]pyrimidin-4-yl)amino)cyclobutane-1-carboxylic acid] |
| 0.769 | 0.825 | 2.21 | 1.52 | 0.38 | 3300 | 0.158 | 0.649 | 3180 | CNC(=O)c1cc2n(n1)CCCN(c1nc(OCC34CCCN3CCC4)nc3c(F)c(-c4cccc5cccc(F)c45)ncc13)C2 [Example 259, 5-(8-fluoro-7-(8-fluoronaphthalen-1-yl)-2-((hexahydro-1H-pyrrolizin-7a-yl)methoxy)pyrido[4,3-d]pyrimidin-4-yl)-N-methyl-5,6,7,8-tetrahydro-4H-pyrazolo[1,5-a][1,4]diazepine-2-carboxamide] |
| 0.215 | 0.224 | 2.86 | 0.403 | 0.397 | 11700 | 14.1 | 0.418 | 10800 | Nc1ncccc1CNc1nc(OCC23CCCN2CCC3)nc2c(F)c(-c3cccc4cccc(F)c34)ncc12 [Example 70, N-((2-aminopyridin-3-yl)methyl)-8-fluoro-7-(8-fluoronaphthalen-1-yl)-2-((hexahydro-1H-pyrrolizin-7a-yl)methoxy)pyrido[4,3-d]pyrimidin-4-amine] |
